According to publication PMC4609890, “Discovery of novel small molecule modulators of Clavibacter michiganensis subsp. michiganensis” (Frontiers in Microbiology, 2015):
≈ marks a conversion by molar mass, not a printed value.

Assays:
[1] = system: Clavibacter michiganensis subsp. michiganensis (Cmm); assay: Resistance evaluation by sequential passage at sub-lethal doses; assay type: cell-based; details: 15 passages in liquid NBY at 0.75X MIC
Description: (§1) Single step and sequential passage resistance assays were performed as described previously with few modifications ([Ling et al., 2015]). Eleven of the 12 top hit compounds were tested in this experiment and one could not be resynthesized. […] The MBCs for each of these compounds were determined as described previously ([Ling et al., 2015]).
Clavibacter michiganensis subsp. michiganensis cultures grown in NBY broth medium at 28°C for 24 h were suspended in fresh NBY broth and normalized to an OD600 of 0.01 (5 × 10^6 CFU/ml). One-hundred microliters fresh culture was transferred to duplicate wells of a 96-well microtiter plate each containing 0.75× MIC of a test compound (concentration allowing >50% growth inhibition). Cmm cultured in 20 μg/ml chloramphenicol, 50 μg/ml kanamycin, or 2% DMSO, or non-amended NBY broth were used as controls. The bacteria were incubated at 28°C, 150 rpm, for 24 h in the dark. Following incubation, plates were centrifuged at 2,100 × g for 5 min at room temperature. The supernatant was discarded, bacteria were resuspended in 100 μl fresh NBY and transferred into a new 96-well plate containing 0.75× MIC of the same small molecule. This procedure was repeated 14 times. Following 15 passages, bacterial suspensions were assessed for resistance to the test compound by assessing MIC and MBC as noted above.

[2] = system: Clavibacter michiganensis subsp. michiganensis (Cmm); assay: Minimum bacteriocidal concentration (MBC) for Cmm; assay type: cell-based; details: read-out: MBCs
Description: (§2) Seventy-seven selected compounds were re-ordered from ChemBridge in a 96-well format as a powder. The compounds were dissolved in 100 μl DMSO and stored at -80°C until used. […] In addition, ability of Cmm to develop resistance to selected compounds was tested.
as §1

[3] = system: Clavibacter michiganensis subsp. michiganensis (Cmm); assay: Resistance evaluation by single step at a lethal dose; assay type: cell-based; details: 5 days on NBY agar with 2X MIC, 1 × 10^9 CFU
Description: as §1
Cmm grown in NBY medium at 28°C for 48 h was centrifuged at 4,700 × g for 15 min at room temperature. Supernatant was discarded and bacteria were resuspended in sterile water to a concentration of 2 × 10^10 CFU/ml). Compounds (2× MIC) were mixed with […] of molten NBY agar medium and transferred to duplicate wells of a 24-well culture plate. Agar in the plate was allowed to solidify in the dark. Fifty microlitre of Cmm culture (1 × 10^9 CFU) was added to test wells, dried in the dark at room temperature, and incubated at 28°C for 5 days in the dark. Bacteria spread on NBY agar with 50 μg/ml kanamycin or NBY agar itself was used as positive and negative controls, respectively. After 5 days of incubation, any colonies that developed were assessed for resistance to the test compounds by determining MIC and the MBC as noted above.

[4] = system: Clavibacter michiganensis subsp. michiganensis (Cmm); assay: Minimum inhibitory concentration (MIC) for Cmm growth; assay type: cell-based; details: read-out: MICs
Description: Seventy-seven selected compounds were re-ordered from ChemBridge in a 96-well format as a powder. The compounds were dissolved in 100 μl DMSO and stored at -80°C until used. […] In addition, ability of Cmm to develop resistance to selected compounds was tested. […]

[5] = system: Gram-negative bacteria tested; assay: Secondary screen kinetic growth inhibition of Gram-negative bacteria; assay type: cell-based; details: 200 μM
Description: as §2
(§3) Screening for growth inhibition of Cmm strains, plant beneficial bacteria and human gut bacteria was set up similarly to the initial screen using 1 μl of 2 μmol suspensions of each compound. Plates were incubated in a Sunrise^TM Tecan microplate reader for kinetic measurement of growth every 15 min for 24 h. Growth curves were analyzed in DB interface software and the effect of each compound on growth was evaluated based on the ratio of area under growth curve (compound/control) as “no significant effect (ratio > 0.5),” “inhibition (ratio ≤ 0.5),” “static (ratio = 0, bacterial growth revived after streak on a fresh NBY plate)” and “cidal (ratio = 0, bacterial growth not revived)” ([Wallace et al., 2011]).

Cmm strains = assay: Secondary screen kinetic growth inhibition of Cmm strains; assay type: cell-based, Clavibacter michiganensis subsp. michiganensis; details: kinetic growth 24 h
Description: as §2, §3

Bacillus subtilis GB03 = assay: Secondary screen kinetic growth inhibition of B. subtilis; assay type: cell-based; details: 200 μM
Description: as §2, §3

[6] = system: plant beneficial bacteria and human gut bacteria; assay: Secondary screen on plant beneficial bacteria and human gut bacteria (antibacterial spectrum); assay type: cell-based; details: compared with other 11 compounds; data not shown
Description: as §2, §3

Cmm BL-Cmm17 = assay: Bioluminescent Cmm tomato seedling infection assay; assay type: in vivo; details: seeds infested with BL-Cmm17, compound applied to seed, 8-days-old seedlings plated
Description: A bioluminescent Cmm strain, BL-Cmm17, was used to monitor the effect of selected small molecules on Cmm infection of tomato seedlings in vivo ([Xu et al., 2010]). Briefly, tomato seeds (cv. OH9242) were infested by soaking in BL-Cmm17 suspension (10^8 CFU/ml) in a 100-ml sterile beaker. The beaker was placed in a Nucerite Desiccator (Nalge Sybron Corporation, Rochester, NY, USA), and a vacuum was applied for 5 min using an Air Cadet pump (Barnant, Barrington, IL, USA) with a maximum of 18 lb/in^2 pressure. Seeds treated similarly with sterilized water were used as controls. After inoculation, seeds were air-dried and one seed was placed in a 1.2 ml library tube containing 400 μl of 1% water agar; tubes were placed in wells of a 96-well plate. The selected compound (1 μl of 2 μmol in 50 μl water) was applied to each seed and the plate was incubated at 25°C under 8 h/16 h light/dark conditions. There were three replicate seeds/plate per treatment. Bioluminescence images were taken using an in vivo imaging system (IVIS Model 100; PerkinElmer, Waltham, MA, USA) 3 and 8 days later. Eight-days-old seedlings were ground in potassium phosphate buffer and extracts were serially diluted and plated on NBY to assess the presence of Cmm.

Structure (SMILES) | Resistant colonies after growth at sub-lethal (0.75X MIC) concentration [1] | MBC [2] | Resistant colonies after incubation at lethal (2X MIC) concentration [3] | MIC [4] | Effect on growth of Gram-negative bacteria tested [5] | Effect on Cmm growth (Cmm strains) | Effect on B. subtilis growth (Bacillus subtilis GB03) | Antibacterial spectrum [6] | Cmm growth reduction in tomato seedlings (Cmm BL-Cmm17)
COc1cccc(-c2ccccc2NC(=O)C2CCN(Cc3ccc(OC)cc3F)CC2)c1 [Compound 1] | None | 25 µM (≈ 11.2 µg/mL) | None | 25 µM (≈ 11.2 µg/mL) | – | – | – | – | –
CN(Cc1nc2ccccc2[nH]1)Cc1c[nH]nc1-c1ccc(-c2ccccc2)cc1 [Compound 2] | None | 50 µM (≈ 19.7 µg/mL) | None | 25 µM (≈ 9.84 µg/mL) | – | – | – | – | –
Cc1cc(O)ccc1Nc1nc(-c2cccs2)cs1 [Compound 3] | None | 50 µM (≈ 14.4 µg/mL) | None | 50 µM (≈ 14.4 µg/mL) | not | cidal (cidal (ratio = 0, bacterial growth not revived)) | cidal (cidal (ratio = 0, bacterial growth not revived)) | – | –
CC(C)Cc1ccc(CN2CCCC(NC(=O)CCn3c(CO)nc4ccccc43)C2)cc1 (stereo not drawn) [Compound 4] | None | 100 µM (≈ 44.9 µg/mL) | None | 100 µM (≈ 44.9 µg/mL) | – | – | – | – | –
CC1CCC(C(C)C)C(OC(=O)Cn2c[n+](CC(=O)OC3CC(C)CCC3C(C)C)c3ccccc32)C1 (stereo not drawn) [Compound 5] | None | 5 µM | None | 5 µM | – | – | – | broader antibacterial spectrum | –
O=C(Nc1cccc(-c2cscn2)c1)C1CCN(C/C=C/c2ccc(F)cc2)CC1 [Compound 6] | None | 50 µM (≈ 21.1 µg/mL) | None | 50 µM (≈ 21.1 µg/mL) | – | – | – | – | –
Cc1ccnc(Nc2nc(-c3ccc(O)c(O)c3)cs2)c1 [Compound 7] | None | 50 µM (≈ 15 µg/mL) | None | 50 µM (≈ 15 µg/mL) | not | cidal (cidal (ratio = 0, bacterial growth not revived)) | cidal (cidal (ratio = 0, bacterial growth not revived)) | – | –
CCOC(=O)N1CCN(CC(O)COc2ccc(C3CCCCC3)cc2)CC1 (stereo not drawn) [Compound 8] | None | 50 µM (≈ 19.5 µg/mL) | None | 50 µM (≈ 19.5 µg/mL) | – | – | – | – | –
CCCOc1ccc(C(=O)C2=C(O)C(=O)N(CCCN(C)C)C2c2ccc(Cl)cc2)cc1C (stereo not drawn) [Compound 9] | None | 100 µM (≈ 47.1 µg/mL) | None | 50 µM (≈ 23.5 µg/mL) | – | – | – | – | –
COc1cccc(-c2ccc(NC(=O)C3CCCN(Cc4cccc(O)c4)C3)cc2)c1 (stereo not drawn) [Compound 12] | None | 25 µM (≈ 10.4 µg/mL) | None | 12.5 µM (≈ 5.21 µg/mL) | – | – | – | – | over 0.5 log
